Usually IC50 stands for the midpoint of a concentration-inhibition curve. High values mean weaker potency, low ones greater potency.

The record followed here is patent publication US8268825B2 (priority 2005, dated 2012).

Values after ≈ are worked out from the molar mass of the structure shown. Where only a bound is given, the exact number is not on record here.

Assay [1] concerns the target Bacillus anthracis DHFR (Bacillus anthracis, UniProt Q81R22). Put plainly: biochemical.
The target in assay [2] is T1, human DHFR (Homo sapiens, UniProt P00374).
T1 sequence (P00374 1-187): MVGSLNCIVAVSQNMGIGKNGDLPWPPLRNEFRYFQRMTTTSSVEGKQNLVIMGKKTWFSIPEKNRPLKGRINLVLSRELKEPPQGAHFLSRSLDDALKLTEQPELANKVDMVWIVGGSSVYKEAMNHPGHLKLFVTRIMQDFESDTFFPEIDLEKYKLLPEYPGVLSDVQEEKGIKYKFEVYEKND
The assay can be described thus: biochemical.

Assay [3] has as its system Bacillus anthracis Sterne. Put plainly: microbe, parasite or virus in culture. In kind it is cell-based. The settings on record: 16 h, read-out: MIC B. anthracis (ug/ml).

Chain of Bacillus anthracis DHFR (Q81R22 1-162): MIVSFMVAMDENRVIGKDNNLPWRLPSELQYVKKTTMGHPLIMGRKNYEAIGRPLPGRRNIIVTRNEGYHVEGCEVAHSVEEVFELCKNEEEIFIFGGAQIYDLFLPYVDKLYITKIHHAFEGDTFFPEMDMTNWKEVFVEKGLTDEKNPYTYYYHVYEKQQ

In the case of `CCCC1c2ccccc2C=NN1C(=O)/C=C/c1cc(Cc2cnc(N)nc2N)cc(OC)c1OC` (stereo not shown), the results for the IC50 in assay [1] and in assay [2] were 54 nM and 110000 nM, respectively. Also, in assay [3], the MIC worked out at 13 µg/mL (≈ 26.7 µM).
For `COc1cc(Cc2cnc(N)nc2N)cc(/C=C/C(=O)N2N=Cc3ccccc3C2c2ccccc2)c1OC.CS(=O)(=O)O` (stereo not shown), in assay [1], the IC50 was determined as 46 nM. Also, in assay [3], the MIC was found to be 26 µg/mL.
The like results for `CCCCC1c2ccccc2C=NN1C(=O)/C=C/c1cc(Cc2cnc(N)nc2N)cc(OC)c1OC` (stereo not shown) were, in that order, 170 nM and at most 13 µg/mL.
In turn, `COc1cc(Cc2cnc(N)nc2N)cc(/C=C/C(=O)N2N=Cc3ccccc3C2C2CCCCC2)c1OC` (stereo not shown) had an IC50 in assay [1] of 260 nM. Also, in assay [3], the MIC is at most 13 µg/mL.
As to `COc1cc(Cc2cnc(N)nc2N)cc(/C=C/C(=O)N2N=Cc3ccccc3C2C2CCCC2)c1OC` (stereo not shown), the IC50 is 200 nM in assay [1] and over 21000 nM in assay [2]. Moreover, the MIC in assay [3] was at most 26 µg/mL.
`COc1cc(Cc2cnc(N)nc2N)cc(/C=C/C(=O)N2N=Cc3ccccc3C2c2ccccc2)c1OCCN1CCOCC1` (stereo not shown): the IC50 in assay [1] is 170 nM; in assay [2], over 16000 nM. Further, the MIC in assay [3] is at most 32 µg/mL.
With `COc1cc(Cc2cnc(N)nc2N)cc(OC)c1OC` [Trimethoprim, reference compound], the MIC in assay [3] was over 2000 µg/mL.
